Structures are written as SMILES. Read-outs that look alike come from different tables or passages of the source.

For series [1], the target named is T1, H^+ /K^+ ATPase (Sus scrofa, UniProt P19156).
T1 construct: prepared from the stomach of pig; from tissue; host or cells: stomach of pig
The series can be described thus: H^+ /K^+ ATPase Inhibitory Activity Assay. It counts as biochemical, pig. The following applies: for inhibition at 20 µg/mL: 20 μg/ml; for inhibition at 10 µg/mL / inhibition at 5 µg/mL: read-out: H^+ /K^+ ATPase % Inhibition. On the procedure:
The inhibitory activity was determined in the following manner using H^+ /K^+ ATPase prepared from the stomach of pig.
H^+ /K^+ ATPase dilute solution (100 μl, 50 μg as protein) was added to PIPES-tris (pH 6.2) buffer solution (440 μl) containing 4 mM magnesium chloride and 20 mM potassium chloride. Further, 0.1% ethanol solution of nigericin (5 μl) was added. To the solution was added dimethyl sulfoxide (5 μl) and the mixture was incubated at 37° C. for 30 minutes. Then 10 mM PIPES-tris buffer solution (450 μl) containing 4 mM ATP disodium was added to initiate the reaction. 30 minutes later, 50% trichloroacetic acid (1 ml) was added to cease the reaction. […] On the other hand, a similar determination was carried out in the absence of potassium chloride, at which the reading of the absorbance is taken as C2. […] In that case, the readings of the absorbance in the presence and absence of potassium chloride are taken as T1 and T2, respectively.
% Inhibition (I) of the inhibiting substance (test compound) is calculated by the following equation.

The conditions of series [2]: background statement; cited from earlier work.

T1 sequence (P19156 2-1034 limits assumed): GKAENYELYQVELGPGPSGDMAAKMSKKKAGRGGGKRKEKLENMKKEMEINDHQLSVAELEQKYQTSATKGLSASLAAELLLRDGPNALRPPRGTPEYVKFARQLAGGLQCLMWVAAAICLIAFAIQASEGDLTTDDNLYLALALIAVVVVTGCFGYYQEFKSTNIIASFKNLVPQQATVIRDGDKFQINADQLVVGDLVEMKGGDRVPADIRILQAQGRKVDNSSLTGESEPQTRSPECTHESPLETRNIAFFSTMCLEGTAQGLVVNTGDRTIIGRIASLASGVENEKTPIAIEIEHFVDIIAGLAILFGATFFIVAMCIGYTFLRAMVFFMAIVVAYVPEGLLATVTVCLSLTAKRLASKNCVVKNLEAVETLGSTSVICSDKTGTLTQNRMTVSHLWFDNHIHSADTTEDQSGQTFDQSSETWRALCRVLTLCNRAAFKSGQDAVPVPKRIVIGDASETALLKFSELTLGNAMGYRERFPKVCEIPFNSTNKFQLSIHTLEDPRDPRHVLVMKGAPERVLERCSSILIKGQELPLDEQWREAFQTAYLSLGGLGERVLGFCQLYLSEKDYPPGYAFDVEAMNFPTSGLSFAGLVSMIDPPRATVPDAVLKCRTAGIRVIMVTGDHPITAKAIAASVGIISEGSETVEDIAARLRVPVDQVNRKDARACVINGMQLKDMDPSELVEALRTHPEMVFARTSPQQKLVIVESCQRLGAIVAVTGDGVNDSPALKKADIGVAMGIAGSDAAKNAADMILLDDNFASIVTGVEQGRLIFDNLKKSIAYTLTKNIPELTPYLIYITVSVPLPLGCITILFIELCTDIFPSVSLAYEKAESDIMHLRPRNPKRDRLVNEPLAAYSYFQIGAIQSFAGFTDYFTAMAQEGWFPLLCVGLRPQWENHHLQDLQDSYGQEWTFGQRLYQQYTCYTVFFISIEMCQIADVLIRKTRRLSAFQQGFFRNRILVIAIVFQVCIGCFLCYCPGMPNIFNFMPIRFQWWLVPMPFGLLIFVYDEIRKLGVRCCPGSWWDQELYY
T1 sequence (P18434 whole entry partner): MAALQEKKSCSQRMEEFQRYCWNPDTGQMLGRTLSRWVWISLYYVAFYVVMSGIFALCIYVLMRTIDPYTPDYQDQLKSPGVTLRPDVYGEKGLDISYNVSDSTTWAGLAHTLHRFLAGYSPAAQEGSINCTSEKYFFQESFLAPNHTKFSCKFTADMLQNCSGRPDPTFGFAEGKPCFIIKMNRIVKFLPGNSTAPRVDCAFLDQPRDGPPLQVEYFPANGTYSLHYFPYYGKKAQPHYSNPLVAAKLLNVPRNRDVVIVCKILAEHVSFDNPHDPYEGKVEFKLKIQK

Regarding `c1ccc2c(CCN3CCCCC3)c(CCCCCCc3[nH]c4ccccc4c3CCN3CCCCC3)[nH]c2c1` [Example 1, 3,3'-Di(2-piperidinoethyl)-2,2'-hexamethylenediindole], in series [1], the inhibition at 20 µg/mL is 5%.

For `c1ccc2[nH]c(CCCCCCc3[nH]c4ccccc4c3CCN3CCCCC3)cc2c1` [Example 2, 3-(2-Piperidinoethyl)-2,2'-hexamethylenediindole], the inhibition at 10 µg/mL in series [1] (10 μg/ml) was 84%.

For the molecule `c1ccc(CCNCCc2c(CCCCc3cc4ccccc4[nH]3)[nH]c3ccccc23)cc1` [Example 3, 3-(2-Phenethylaminoethyl)-2,2'-tetramethylenediindole], in series [1] (10 μg/ml), the inhibition at 10 µg/mL stood at 97%.

For `c1ccc2[nH]c(CCCCCCCCc3[nH]c4ccccc4c3CCN3CCCCC3)cc2c1` [Example 4, 3-(2-Piperidinoethyl)-2,2'-octamethylenediindole], in series [1] (10 μg/ml), the inhibition at 10 µg/mL was 91%.

`c1ccc2[nH]c(CCCCc3[nH]c4ccccc4c3CCN3CCOCC3)cc2c1` [Example 5, 3-(2-Morpholinoethyl)-2,2'-tetramethylenediindole]: the inhibition at 20 µg/mL in series [1] was found to be 68%.

In series [1], `c1ccc(CNCCc2c(CCCCc3[nH]c4ccccc4c3CCNCc3ccccc3)[nH]c3ccccc23)cc1` [Example 7, 3,3'-Di(2-benzylaminoethyl)-2,2'-tetramethylenediindole] showed an inhibition at 20 µg/mL of 76%.

Turning to `c1ccc(CNCCc2c(CCCCc3cc4ccccc4[nH]3)[nH]c3ccccc23)cc1` [Example 8, 3-(2-Benzylaminoethyl)-2,2'-tetramethylenediindole], the inhibition at 20 µg/mL in series [1] came to 100%.

Take `c1ccc(CCNCCc2c(CCCCc3[nH]c4ccccc4c3CCNCCc3ccccc3)[nH]c3ccccc23)cc1` [Example 13, 3,3'-Di(2-phenethylaminoethyl)-2,2'-tetramethylenediindole]: the inhibition at 5 µg/mL in series [1] (5 μg/ml) was found to be 74%.

For `c1ccc2[nH]c(CCCCc3[nH]c4ccccc4c3CCNCCc3c[nH]c4ccccc34)cc2c1` [Example 16, 3-(2-(2-(3-Indolyl)ethylamino)ethyl)-2,2'-tetramethylenediindole], in series [1] (5 μg/ml), the inhibition at 5 µg/mL turned out to be 71%.

Turning to `CN(CCc1c(CCCCc2[nH]c3ccccc3c2CCN(C)Cc2ccccc2)[nH]c2ccccc12)Cc1ccccc1` [Example 17, 3,3'-Di(2-(N-methylbenzylamino)ethyl)-2,2'-tetramethylenediindole], the inhibition at 5 µg/mL in series [1] was determined as 38%.

As for `CN(CCc1c(CCCCc2cc3ccccc3[nH]2)[nH]c2ccccc12)Cc1ccccc1` [Example 18, 3-(2-(N-Methylbenzylamino)ethyl)-2,2'-tetramethylenediindole], in series [1], the inhibition at 10 µg/mL came out at 100%.

With `c1ccc(CCCNCCc2c(CCCCc3[nH]c4ccccc4c3CCNCCCc3ccccc3)[nH]c3ccccc23)cc1` [Example 19, 3,3'-Di(2-(3-phenylpropylamino)ethyl)-2,2'-tetramethylenediindole], in series [1] (10 μg/ml), the inhibition at 10 µg/mL turned out to be 98%.

Regarding `COc1ccc2[nH]c([S+]([O-])Cc3ncc(C)c(OC)c3C)nc2c1` (stereo not shown) [Omeprazole, omeprazole], in series [2], the “occurrence of side effect (omeprazole)” value is “occurrence of carcinoid”.

(Values after patent US5326879A, “Indole derivatives” (priority 1991, dated 1994).)
